The values below come from publication PMC8769378, “Underlining the Importance of Peripheral Protic Functional Groups to Enhance the Proton Exchange of Gd-Based MRI Contrast Agents” (Inorganic Chemistry, 2021).

A short description of the data set: Stability and protonation constants of Cu^II complexes by spectrophotometry. It is filed as physicochemical. The protocol:
The stability constants of CuL2 were determined by spectrophotometry studying the Cu^2+–L2 systems at the absorption band of Cu^2+ complexes at [H^+] = […] in the wavelength range 210–350 nm. The concentrations of Cu^2+ and L2 were 0.72 mM. The H^+ concentration in the samples was adjusted with the addition of calculated amounts of 3 M HCl. (I = [Na^+] + [H^+] = 0.15, [H^+] ≤ 0.15 M). The samples were kept at 25 °C for 1 week. The absorbance values of the samples were determined at 11 wavelengths (260, 269, 278, 287, 296, 305, 314, 323, 332, 341, and 350 nm). For the calculations of the stability and protonation constants of the […], the molar absorptivities of CuCl2, CuL2, Cu(HL2), Cu(H2L2), and Cu(H3L2) were determined by recording the spectra of 1.0 × 10^–3, 3.0 × 10^–4, 6.0 × 10^–4, and 9.0 × 10^–4 M solutions of CuCl2 and CuL2 in the pH range 1.7–7.5. The pH was adjusted by stepwise addition of concentrated NaOH or HCl solutions. The spectrophotometric measurements were made with the use of a PerkinElmer Lambda 365 UV–vis spectrophotometer at 25 °C, using 1.0 cm cells. The protonation and stability constants were calculated with the PSEQUAD program.[35]
The stability and protonation constants of CaII-, ZnII-, CuII- and GdIII-complexes of L2, expressed by Eqs. (S2) and (S3), were determined by pH-potentiometry and spectrophotometry at 25 °C in 0.15 M […]
where i=0, 1, 2, 3. The KML and KMHiL values of CaII-, ZnII- and CuII-L2 complexes were calculated from the pH-potentiometric titration data obtained at 1:1 metal to ligand concentration ratios. In the calculations, the best fitting of the mL NaOH – pH data was obtained by assuming the formation of […]
ML, MHL, MH2L and MH3L species. […]
– pH data of the “out-of-cell” samples, which had equilibrium pH values in the range of 2.0 – 4.0.
For the complete characterization of the Gd3+-L2 system, the GdL2 complex (which is formed completely at about pH=3.5) was titrated with 0.2 M NaOH solution in the pH range 3.5 – 12.0.
(also on this page, place not known: MH 2L H3L w as derivative s “out -of-cage” *Ln(H 2DOTA)), groups , Ln III-ion donor s . Ln III system. 11,12 th out -of-cage * KGd(H2L) Gd 3+ - ligand 2. 0 Gd 3+-L2 GdL 2 is pH= 3.5) M pH ]L][M[ ]ML[K ML = ]H][LMH[ ]LMH[K 1i i LMHi + − = ]LH][Ln[ )]LH(Ln[K 2 3 2 )LH(Ln 2 + * =) […]
the deprotonation of the Gd(HL) and GdL species, respectively. […]
By taking into account the protonation constants of the ligand L2, the stability constant of the *Gd(H2L2) intermediate and the stability and protonation constant of the GdL2 complex, the species distribution of the Gd3+ - L2 system was calculated (Figure S1). […]
Then, the stability and protonation constants of CuL2 were determined by spectrophotometry. […]

For the compound `O=C(O)CN1CCN(CC(=O)O)CCN(C[C@@H](O)C(=O)O)CCN(CC(=O)O)CC1` [L2, (R)2,2′,2″-(10-(2-Carboxy-2-hydroxyethyl)-1,4,7,10-tetraazacyclododecane-1,4,7-triyl) Triacetic Acid], for the setting “0.15 M NaCl, 25 °C”, the “CuH2L (log K)” value is given as 3.36 (2); the “CuH3L (log K)” value is on record as 1.36 (8); the “CuHL (log K, protonation constant of the complex)” value is 3.84 (2). Further, the “CuL (log K, stability constant)” value (spectrophotometry, I = [Na^+]+[H^+] = 0.15 M, [H^+] ≤ 0.15 M, 298 K) is given as 21.87 (6).
